Patent US12655116B2, “Substituted isophthalic acid diamides” (Bayer Aktiengesellschaft, priority 2020, dated 2026)

Experiments:
POLCO = assay: Pre-emergence herbicidal action against POLCO; format: in vivo, Polygonum convolvulus; details: dosage 80 g/ha
Outline: (§1)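 Visual rating at 3 weeks vs untreated pots; 0–100% scale, 100% = plants died. Treatment: aqueous WP/EC spray onto covering soil, 600–800 l/ha, 0.2% wetter, seeds in sandy loam.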

AVEFA [1] = assay: Pre-emergence herbicidal action against AVEFA; format: in vivo, Avena fatua; details: 80 g/ha, pre-emergence
Outline: as §1

MATIN [2] = assay: Post-emergence herbicidal action against MATIN; format: in vivo, Matricaria inodora; details: dosage 20 g/ha
Outline: (§2)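 Greenhouse pot plants in sandy loam were sprayed at the one-leaf stage, 2 to 3 weeks after sowing, with WP or EC formulations as aqueous suspension or emulsion (600 to 800 l/ha water, 0.2% wetting agent). About 3 weeks later, damage was scored visually against untreated controls as % action (100% = dead, 0% = like control).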

ABUTH [3] = assay: Pre-emergence herbicidal action against ABUTH; format: in vivo, Abutilon theophrasti
Outline: as §1

ALOMY [4] = assay: Post-emergence herbicidal action against ALOMY; format: in vivo, Alopecurus myosuroides; details: visual assessment about 3 weeks after treatment vs untreated controls
Outline: as §2

SETVI [5] = assay: Post-emergence herbicidal action against SETVI; format: in vivo, Setaria viridis; details: dosage 20 g/ha
Outline: as §2

ECHCG [6] = assay: Pre-emergence herbicidal action against ECHCG; format: in vivo, Echinochloa crus-galli
Outline: as §1

AVEFA [7] = assay: Post-emergence herbicidal action against AVEFA; format: in vivo, Avena fatua; details: visual assessment about 3 weeks after treatment, 100% = plants have died, 0% = like control plants
Outline: as §2

VERPE [8] = assay: Pre-emergence herbicidal action against VERPE; format: in vivo, Veronica persica; details: dosage 80 g/ha
Outline: as §1

ECHCG [9] = assay: Post-emergence herbicidal action against ECHCG; format: in vivo, Echinochloa crus-galli; details: dosage 20 g/ha
Outline: as §2

LOLRI = assay: Pre-emergence herbicidal action against LOLRI; format: in vivo, Lolium rigidum; details: 80 g/ha
Outline: as §1

PHBPU [10] = assay: Pre-emergence herbicidal action against PHBPU; format: in vivo, Pharbitis purpurea; details: dosage 80 g/ha
Outline: as §1

MATIN [11] = assay: Pre-emergence herbicidal action against MATIN; format: in vivo, Matricaria inodora
Outline: as §1

DIGSA [12] = assay: Post-emergence herbicidal action against DIGSA; format: in vivo, Digitaria sanguinalis
Outline: as §2

SETVI [13] = assay: Pre-emergence herbicidal action against SETVI; format: in vivo, Setaria viridis
Outline: as §1

PHBPU [14] = assay: Post-emergence herbicidal action against PHBPU; format: in vivo, Pharbitis purpurea
Outline: as §2

AMARE [15] = assay: Post-emergence herbicidal action against AMARE; format: in vivo, Amaranthus retroflexus; details: 20 g/ha, visual assessment about 3 weeks after treatment, 100% = plants have died, 0% = like control plants
Outline: as §2

AMARE [16] = assay: Pre-emergence herbicidal action against AMARE; format: in vivo, Amaranthus retroflexus
Outline: as §1

ABUTH [17] = assay: Post-emergence herbicidal action against ABUTH; format: in vivo, Abutilon theophrasti; details: visual assessment about 3 weeks after treatment vs untreated controls
Outline: as §2

DIGSA [18] = assay: Pre-emergence herbicidal action against DIGSA; format: in vivo, Digitaria sanguinalis
Outline: as §1

VIOTR [19] = assay: Pre-emergence herbicidal action against VIOTR; format: in vivo, Viola tricolor
Outline: as §1

VIOTR [20] = assay: Post-emergence herbicidal action against VIOTR; format: in vivo, Viola tricolor
Outline: as §2

ALOMY [21] = assay: Pre-emergence herbicidal action against ALOMY; format: in vivo, Alopecurus myosuroides
Outline: as §1

VERPE [22] = assay: Post-emergence herbicidal action against VERPE; format: in vivo, Veronica persica
Outline: as §2

[23] = 80 g/ha, scored visually after 3 weeks vs untreated controls (100% = plants have died, 0% = like control plants)

Compound: Cn1nnnc1NC(=O)c1ccc(C(F)(F)F)c(C(=O)NCC2CC2)c1Cl [Example 1-132]
- Pre-emergence action against POLCO in % (POLCO): 80%
- Pre-emergence action against AVEFA in % (AVEFA [1]): 100%
- Post-emergence action against MATIN in % (MATIN [2]): 80%
- Pre-emergence action against ABUTH (herbicidal activity) (ABUTH [3]; [23]): 100%
- Pre-emergence action against ABUTH (herbicidal activity in percent) (ABUTH [3]; dosage 20 g/ha, scored visually after 3 weeks vs untreated controls, 100% = plants have died, 0% = like control plants): 100%
- Post-emergence action against ALOMY in % (ALOMY [4]; dosage 5 g/ha): 80%
- Post-emergence action against ALOMY in % (ALOMY [4]; dosage 20 g/ha): 90%
- Post-emergence action against SETVI in % (SETVI [5]): 90%
- Pre-emergence action against ECHCG in % (ECHCG [6]; 20 g/ha): 90%
- Pre-emergence action against ECHCG in % (ECHCG [6]; 80 g/ha): 100%
- Post-emergence action at 5 g/ha against AVEFA in % (AVEFA [7]; 5 g/ha): 80%
- Post-emergence action at 20 g/ha against AVEFA in % (AVEFA [7]; 20 g/ha): 90%
- Pre-emergence action against VERPE in % (VERPE [8]): 100%
- Post-emergence action against ECHCG in % (ECHCG [9]): 90%
- Pre-emergence action against LOLRI in % (LOLRI): 80%
- Pre-emergence action against PHBPU in % (PHBPU [10]): 80%
- Pre-emergence action against MATIN in % (MATIN [11]; dosage 20 g/ha): 100%
- Pre-emergence action against MATIN in % (MATIN [11]; dosage 80 g/ha): 100%
- Post-emergence action against DIGSA (DIGSA [12]; 20 g/ha): 90%
- Pre-emergence action against SETVI in % (SETVI [13]; dosage 20 g/ha): 80%
- Pre-emergence action against SETVI in % (SETVI [13]; dosage 80 g/ha): 100%
- Post-emergence action against PHBPU in % (PHBPU [14]; dosage 20 g/ha): 90%
- Post-emergence action at 20 g/ha against AMARE in % (AMARE [15]): 100%
- Pre-emergence action against AMARE in % (AMARE [16]; 20 g/ha, scored visually after 3 weeks vs untreated controls, 100% = plants have died, 0% = like control plants): 100%
- Pre-emergence action against AMARE in % (AMARE [16]; [23]): 100%
- Post-emergence action against ABUTH in % (ABUTH [17]; dosage 20 g/ha): 80%
- Pre-emergence action against DIGSA in % (DIGSA [18]; dosage 20 g/ha): 100%
- Pre-emergence action against DIGSA in % (DIGSA [18]; dosage 80 g/ha): 100%
- Pre-emergence action against VIOTR in % (VIOTR [19]; dosage 20 g/ha): 100%
- Pre-emergence action against VIOTR in % (VIOTR [19]; dosage 80 g/ha): 100%
- Post-emergence action against VIOTR in % (VIOTR [20]; 5 g/ha): 80%
- Post-emergence action against VIOTR in % (VIOTR [20]; 20 g/ha): 90%
- Pre-emergence action against ALOMY (ALOMY [21]; 20 g/ha, scored visually after 3 weeks, 100% = plants have died, 0% = like control plants): 80%
- Pre-emergence action against ALOMY (herbicidal activity) (ALOMY [21]; 80 g/ha, pre-emergence, scored visually after 3 weeks vs untreated controls (100% = plants have died, 0% = like control plants)): 100%
- Post-emergence action against VERPE in % (VERPE [22]; 5 g/ha): 90%
- Post-emergence action against VERPE in % (VERPE [22]; 20 g/ha): 90%

Compound: Cn1nnnc1NC(=O)c1ccc(C(F)F)c(C(=O)NC2CC2)c1Br [Example 1-227]
- pest or weed control at 80 g/ha (POLCO; Fallopia convolvulus, 504 h): 90%
- pest or weed control at 80 g/ha (AVEFA [1]; Avena fatua, 504 h): 90%
- pest or weed control at 80 g/ha (ABUTH [3]; Abutilon theophrasti, 504 h, 80 g/ha, scored visually after 3 weeks vs untreated controls (100% = plants have died, 0% = like control plants)): 100%
- pest or weed control at 20 g/ha (ABUTH [3]; Abutilon theophrasti, 504 h, dosage 20 g/ha, scored visually after 3 weeks vs untreated controls, 100% = plants have died, 0% = like control plants, read-out: Pre-emergence action against ABUTH (herbicidal activity in percent)): 100%
- pest or weed control at 20 g/ha (ECHCG [6]; Echinochloa crus-galli, 504 h, 20 g/ha): 80%
- pest or weed control at 80 g/ha (ECHCG [6]; Echinochloa crus-galli, 504 h, 80 g/ha): 90%
- pest or weed control at 20 g/ha (AVEFA [7]; Avena fatua, 504 h, 20 g/ha): 80%
- pest or weed control at 80 g/ha (VERPE [8]; Veronica persica, 504 h): 100%
- pest or weed control at 80 g/ha (LOLRI; Lolium rigidum, 504 h): 90%
- pest or weed control at 80 g/ha (PHBPU [10]; Ipomoea purpurea, 504 h): 80%
- pest or weed control at 20 g/ha (MATIN [11]; Tripleurospermum inodorum, 504 h, dosage 20 g/ha): 80%
- pest or weed control at 80 g/ha (MATIN [11]; Tripleurospermum inodorum, 504 h, dosage 80 g/ha): 100%
- pest or weed control at 5 g/ha (DIGSA [12]; Digitaria sanguinalis, 504 h, 5 g/ha): 100%
- pest or weed control at 20 g/ha (DIGSA [12]; Digitaria sanguinalis, 504 h, 20 g/ha): 100%
- pest or weed control at 80 g/ha (SETVI [13]; Setaria viridis, 504 h, dosage 80 g/ha): 100%
- pest or weed control at 5 g/ha (PHBPU [14]; Ipomoea purpurea, 504 h, dosage 5 g/ha): 80%
- pest or weed control at 20 g/ha (PHBPU [14]; Ipomoea purpurea, 504 h, dosage 20 g/ha): 90%
- pest or weed control at 20 g/ha (AMARE [15]; Amaranthus retroflexus, 504 h): 100%
- pest or weed control at 20 g/ha (AMARE [16]; Amaranthus retroflexus, 504 h, 20 g/ha, scored visually after 3 weeks vs untreated controls, 100% = plants have died, 0% = like control plants): 100%
- pest or weed control at 80 g/ha (AMARE [16]; Amaranthus retroflexus, 504 h, 80 g/ha, scored visually after 3 weeks vs untreated controls, 100% = plants have died, 0% = like control plants): 100%
- pest or weed control at 5 g/ha (ABUTH [17]; Abutilon theophrasti, 504 h, dosage 5 g/ha): 100%
- pest or weed control at 20 g/ha (ABUTH [17]; Abutilon theophrasti, 504 h, dosage 20 g/ha): 100%
- pest or weed control at 20 g/ha (DIGSA [18]; Digitaria sanguinalis, 504 h, dosage 20 g/ha): 100%
- pest or weed control at 80 g/ha (DIGSA [18]; Digitaria sanguinalis, 504 h, dosage 80 g/ha): 100%
- pest or weed control at 20 g/ha (VIOTR [19]; Viola tricolor, 504 h, dosage 20 g/ha): 100%
- pest or weed control at 80 g/ha (VIOTR [19]; Viola tricolor, 504 h, dosage 80 g/ha): 100%
- pest or weed control at 5 g/ha (VIOTR [20]; Viola tricolor, 504 h, 5 g/ha): 100%
- pest or weed control at 20 g/ha (VIOTR [20]; Viola tricolor, 504 h, 20 g/ha): 100%
- pest or weed control at 80 g/ha (ALOMY [21]; Alopecurus myosuroides, 504 h, 80 g/ha, pre-emergence, scored visually after 3 weeks vs untreated controls (100% = plants have died, 0% = like control plants)): 100%
- pest or weed control at 20 g/ha (ALOMY [21]; Alopecurus myosuroides, pre-emergence, 504 h, 20 g/ha, scored visually after 3 weeks, 100% = plants have died, 0% = like control plants): 80%
- pest or weed control at 20 g/ha (VERPE [22]; Veronica persica, 504 h, 20 g/ha): 80%
